{
  "source": "patent US20210332024A1",
  "about": "“MODULATORS OF PIN1 ACTIVITY AND USES THEREOF” (Yeda Research and Development Co. Ltd., priority 2019, published 2021)",
  "key": {"[1]": {"experiment": "Thiol reactivity assay (DTNB)", "type": "physicochemical", "details": "200 μM compound, pH 7.4, 37° C.", "procedure": "50 μM DTNB (dithionitrobenzoic acid) was incubated with 200 μM TCEP (tris(2-carboxytehyl)phosphine) in 20 mM sodium phosphate buffer (pH 7.4) with 150 mM NaCl, for 5 minutes at room temperature, in order to obtain TNB^2− (thionitrobenzoate dianion). 200 μM compounds were subsequently added to the TNB^2−, followed by immediate UV absorbance measurement at 412 nm (at 37° C.). The UV absorbance was acquired every 15 minutes for 7 hours. The assay was performed in a 384-well plate using a Spark™ 10M plate reader (Tecan). Background absorbance of compounds was subtracted by measuring the absorbance at 412 nm of each compound under the same conditions without DTNB. Compounds were measured in triplicates. The data was fitted to a second order reaction equation such that the rate constant k is the slope of ln([A][B0]/[B][A0]), where [A0] and [B0] are the initial concentrations of the compound (200 μM) and TNB^2− (100 μM) respectively, and [A] and [B] are the remaining concentrations as a function of time, as determined from the spectrometric measurement. Linear regression using Prism® software was performed to fit the rate against the first four hours of measurements.\nIn order to estimate the influence of the various lipophilic moieties on “warhead” reactivity [Flanagan et al., J Med Chem 2014, 57:10072-10079; Lonsdale et al., J Chem Inf Model 2017, 57:3124-3137; Dahal et al., Medchemcomm 2016, 7:864-872], the thiol reactivity of the top ten binders of the second and third generation was assessed using a high-throughput assay previously applied to the entire fragment library, as described in Resnick et al. [J Am Chem Soc 2019, 141:8951-8968]. In brief, the second-order rate constant was evaluated for a model thiol, which reflects trends in general reactivity towards thiol groups."}, "[2]": {"target": "GST-Pin1 (Homo sapiens, UniProt Q13526)", "sequence (Q13526 whole entry)": "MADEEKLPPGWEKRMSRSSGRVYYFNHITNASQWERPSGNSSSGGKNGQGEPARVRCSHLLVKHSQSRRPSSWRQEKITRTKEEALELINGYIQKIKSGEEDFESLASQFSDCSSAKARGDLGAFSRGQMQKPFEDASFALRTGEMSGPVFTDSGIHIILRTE", "experiment": "Fluorescence polarization (FP) competition assay", "type": "binding", "procedure": "Binding affinity to Pin1 was determined using a fluorescence polarization assay to assess competition with an N-terminal fluorescein-labeled peptide (Bth-D-phosThr-Pip-Nal), which was obtained from JPT Peptide Technologies and Proteintech Group. The indicated concentrations of candidate compound were pre-incubated for 12 hours at 4° C. with a solution containing 250 nM glutathione S-transferase (GST)-Pin1, 5 nM of fluorescein-labeled peptide probe, 10 μg/ml bovine serum albumin, 0.01% Tween-20 and 1 mM DTT (dithiothreitol) in a buffer of 10 mM HEPES, 10 mM NaCl and 1% glycerol (pH 7.4). Measurements of FP were performed in black 384-well plates (Corning) using an EnVision™ reader. Apparent Ki values (under the tested conditions) obtained from the FP assay results were derived from the Kenakin Ki equation:\nKenakin Ki=(Lb)(EC50)(Kd)/(Lo)(Ro)+Lb(Ro−Lo+Lb−Kd)\nSittampalam G. S. et al., Eli Lilly & Company and the National Center for Advancing Translational Sciences, 2004].\nCovalent labeling of Pin1 was confirmed to translate into enzyme inhibition via a fluorescence polarization (FP) competition assay using a FITC-labeled substrate mimetic peptide inhibitor, as well as a chymotrypsin-coupled PPIase assay, using procedures described in Wei et al. [Nat Med 2015, 21:457-466].\nThe fluorescent polarization assay was performed in a dose-dependent and time-dependent manner, in order to further characterize the kinetic parameters of Pin1-3 binding to Pin1."}, "[3]": {"system": "cysteine residues on a proteome-wide scale, PATU-8988T cells", "experiment": "CITe-Id chemoproteomic selectivity experiment", "type": "cell-based", "details": "PATU-8988T cells, 100, 500 or 1000 nM for 5 hours", "procedure": "In order to profile the selectivity of Pin1-3, a Covalent Inhibitor Target-site Identification (CITe-Id) experiment [Browne et al., […] 2019, 141, 191-203] was performed, as depicted in FIG. 28.\nThis chemoproteomic platform enables the identification and quantification of the dose-dependent binding of covalent inhibitors to cysteine residues on a proteome-wide scale. In this competition experiment, live PATU-8988T cells were incubated with Pin1-3 (100, 500 or 1000 nM) for 5 hours, followed by cell lysis and co-incubation with Pin1-3-DTB (2 μM) for 18 hours. Following trypsin digest and avidin enrichment, the DTB-modified peptides were analyzed by shotgun LC-MS/MS."}, "[4]": {"system": "300 suspension and hematopoietic human cancer cell lines", "experiment": "PRISM anti-proliferative profiling", "type": "cell-based", "details": "120 h, all 300 cancer cell lines, 5-day treatment", "excerpt": "In order to profile the anti-proliferative activity of Pin1-3, the compound was submitted to the PRISM platform (Broad Institute) to evaluate its potency against 300 suspension and hematopoietic human cancer cell lines. The PRISM method enables high-throughput, pooled screening of mixtures of cell lines, which are each labeled with a 24-nucleotide barcode [Yu et al., Nat Biotechnol 2016, 34:419-423]."}, "[5]": {"system": "Pin1-knockout 8988T pancreatic cancer cells", "experiment": "Prolonged-treatment cell growth, Pin1-knockout 8988T", "type": "cell-based", "details": "1 μM", "procedure": "(§1) The ability of Pin1-3 treatment to induce more pronounced anti-proliferative effects after prolonged treatment (6-8 days) was then assessed. In order to ensure that target engagement was maintained for the duration of the experiment, Pin1-3 was replenished in fresh media every 48 hours.\nThe effect of Pin1-binding compounds on 8988T pancreatic adenocarcinoma cells was assessed by incubating cells with 1 μM Pin1-3, and evaluating cell growth relative to cells incubated with vehicle (DMSO) alone. In order to confirm that the effect of Pin1-3 is mediated by Pin1, the experiment was repeated using Pin1 knockout cells."}, "[6]": {"system": "MDA-MB-468 breast adenocarcinoma cells", "experiment": "Prolonged-treatment cell growth, MDA-MB-468", "type": "cell-based", "details": "MDA-MB-468, 1 or 2.5 μM", "procedure": "as §1"}, "[7]": {"experiment": "Metabolic stability in hepatic microsomes", "type": "in vitro ADME", "details": "liver microsomes; mouse hepatic microsomes"}, "[8]": {"system": "KPC mouse derived tumor cells", "experiment": "KPC orthotopic transplantation mouse model", "type": "in vivo, mice", "details": "IP 20 or 40 mg/kg every day", "procedure": "10^6 KPC (KrasLSL.G12D/+; p53R172H/+; PdxCretg/+) mouse derived tumor cells were transplanted into B6 mice pancreas (orthotopic transplantation). After 1 week of the transplantation, treatment of mice with Pin1-3 began. Mice were treated (IP) with Pin1-3 diluted solution (as a control), or 20 or 40 mg/kg every day. Tumor size was measured, and when the tumor size in control group reached 2 cm, mice were sacrificed to collect tumor tissue (n=4), and Kaplan-Meier survival analysis (n=8) was performed."}},
  "data": [
    {"smiles": "CC(C)(C)CN(C(=O)CCl)C1CCS(=O)(=O)C1", "note": "(stereo not drawn) [Pin1-3, 2-chloro-N-(sulfolan-3-yl)-N-neopentylacetamide]", "values": [
      {"measurement": "Reactivity Log k", "setting": "[1]", "value": "−7.43"},
      {"measurement": "Reactivity k", "setting": "[1]", "value": "3.73e-08", "unit": "M⁻¹ s⁻¹"},
      {"measurement": "Ki", "setting": "[2]; FP assay, competition with fluorescein-labeled peptide, 250 nM GST-Pin1, read-out: Ki (apparent)", "value": 110, "unit": "nM"},
      {"measurement": "kinact", "setting": "[2]; dose-dependent and time-dependent FP assay", "value": 0.0005, "unit": "s⁻¹"},
      {"measurement": "kinact/KI", "setting": "[2]; dose-dependent and time-dependent FP assay, read-out: Kinact/Ki (apparent)", "value": 29000, "unit": "M⁻¹ s⁻¹"},
      {"measurement": "Dose-dependent competition among 162 cysteine residues labeled by Pin1-3-DTB", "setting": "[3]", "value": "only Pin1 Cys113 exhibited dose-dependent competition"},
      {"measurement": "IC50", "setting": "[4]", "value": "> 3000", "unit": "nM"},
      {"measurement": "Cell viability / growth", "setting": "[5]", "value": "no considerable effect"},
      {"measurement": "Cell growth", "setting": "[6]", "value": "long-term inhibition"},
      {"measurement": "half-life", "setting": "[7]", "value": 41, "unit": "min"},
      {"measurement": "KPC tumor growth", "setting": "[8]", "value": "inhibited KPC tumor growth"},
      {"measurement": "Survival (Kaplan-Meier)", "setting": "[8]", "value": "enhanced survival"}
    ]}
  ]
}
